Assay results taken from US20260240976A1, “T[…] VACCINES BASED ON VALIDATED TARGET EPITOPES” (Deutsches Krebsforschungszentrum Stiftung des öffentlichen …, priority 2023, published 2026).

Test system: peptide-specific T cell cultures
Test: T cell phenotyping and intracellular cytokine staining (IFN-gamma, TNF-alpha)
Type: cell-based, human
Set-up: key: +: cytokine: Immunogenicity of the peptide shown by intracellular cytokine staining (IFN-gamma, TNF-alpha); +*: *highlights data from published resources.; *highlights data from published resources
Conditions: HLA restriction A01
Method: To characterize and quantify the responsive cells upon peptide stimulation, the peptide-specific T cell cultures with positive ELISpot results were further analyzed with T cell phenotyping and intracellular cytokine staining (ICS) assessed by flow cytometry.
The cells of the respective continued short-term T cell culture as well as the DMSO-stimulated and an unresponsive T cell line were harvested into 2 mL reaction tubes and centrifuged at 400×g for 10 min. The supernatant was discarded and the pellet of the unresponsive T cell line was resuspended in 100 μL ELISpot medium and used as unstimulated and unstained control. The pellets of the responsive and the DMSO-stimulated T cell lines were resuspended in 200 μL ELISpot medium and split equally into two wells of a V-bottom 96-well plate. One well of the responsive T cell lines was re-stimulated with 10 μg/mL of its specific peptide while the other well was mock stimulated with 0.1% (v/v) DMSO. As positive control, one well of the DMSO-stimulated T cell line was activated by treatment with 20 ng/ml Phorbol 12-myristate 13-acetate and 1 μM lonomycin. Then, 1:10 diluted GolgiStop (containing monensin) and 1:15 diluted GolgiPlug (containing brefeldin A) were added to all wells to inhibit intracellular transport processes. Monensin inhibits the trans-Golgi transport, while brefeldin A inhibits transport between the ER and the Golgi (Chardin and McCormick, 1999; Mollenhauer et al., 1990). The stimulated cells were incubated for 5 h at standard culture conditions.
After incubation, the cells were resuspended, centrifuged at 400×g for 5 min and the supernatant was discarded. Then, the cells were resuspended in 50 μL cold staining buffer (unstained) or 50 μL cold staining buffer containing the phenotyping antibodies against CD3, CD4, CD8 and the LIVE/DEAD™ Fixable Near-IR Dead Cell Stain (unstimulated and stimulated) and incubated at 4° C. for 30 min. After the surface staining, the cells were washed twice with 200 μL staining buffer and centrifugation at 1400 rpm, followed by fixation with 1% paraformaldehyde (PFA) solution for 15 min at 4° C. All following centrifugation steps were carried out at 1400 rpm for 5 min. After fixation, the cells were again washed twice with 200 μL cold staining buffer and were then resuspended in 100 μL 1× perm/wash buffer diluted in PBS (provided is 10×) for 15 min at 4° C. for cell membrane permeabilization. Subsequently, the plate was centrifuged and the supernatant was discarded. The cells were resuspended in 50 μL perm/wash buffer diluted in PBS (unstained) or 50 μL perm/wash buffer containing the intracellular cytokine antibodies against IFNγ, TNFα and granzyme B (unstimulated and stimulated) for 30 min at 4° C. After intracellular cytokine staining, the cells were washed twice with 200 μL 1× perm/wash buffer. Then 100 μL fix/perm solution (provided in the BD Cytofix/Cytoperm kit) were added per well. After 20 min of incubation at 4° C., the cells of each well were washed twice with 200 μL 1× perm/wash buffer before being resuspended in 100 μL staining buffer and stored at 4° C. overnight.
OneComp eBeads™ (eBeads) and ArC™ Amine Reactive Compensation beads (ArC beads) were stained as compensation controls. For each antibody, 50 μL of the eBeads suspension were stained with the same dilution as used for staining the cells. The ArC beads were stained with 1 μL LIVE/DEAD™ Fixable Near-IR Dead Cell Stain stock solution in 50 μL staining buffer. The beads were incubated at 4° C. for 30 min and were then washed two times with 1 mL staining buffer and centrifugation at 400×g. Finally, the stained beads were resuspended in 400 μL staining buffer, one drop of ArC™ negative beads was added to the labelled ArC beads, and all beads were stored at 4° C. overnight.
On the next day, the samples and the single stained compensation controls were acquired at a BD FACS Canto™ II analyzer using the BD FACS Diva Software Version 6. […]

Row | Substance | cytokine: Immunogenicity of the peptide shown by intracellular cytokine staining (IFN-gamma, TNF-alpha)
1 | 7 (TTDLYCYEQ; Human papillomavirus 16) [compound 7] | +
2 | 5 (EYRYYCYSLY; Human papillomavirus 16) [compound 5] | +
3 | 6 (DLQPETTDLY; Human papillomavirus 16) [compound 6] | +
4 | 3 (TIHDIILQCVY; Human papillomavirus 16) [compound 3] | +

Same assay, conditions: HLA restriction A02

Row | Substance | cytokine: Immunogenicity of the peptide shown by intracellular cytokine staining (IFN-gamma, TNF-alpha)
5 | 24 (DLLMGTLGIVC; Human papillomavirus 16) [compound 24] | +
6 | 43 (LLMGTLGIVC; Human papillomavirus 16) [compound 43] | +

Same assay, conditions: HLA restriction A03

Row | Substance | cytokine: Immunogenicity of the peptide shown by intracellular cytokine staining (IFN-gamma, TNF-alpha)
7 | 63 (AVCDKCLKFY; Human papillomavirus 16) [compound 63] | +
8 | 61 (IVYRDGNPY; Human papillomavirus 16) [compound 61] | +
9 | 66 (GIVCPICSQK; Human papillomavirus 16) [compound 66] | +

Same assay, conditions: HLA restriction A11

Row | Substance | cytokine: Immunogenicity of the peptide shown by intracellular cytokine staining (IFN-gamma, TNF-alpha)
10 | 64 (AVCDKCLKFYS; Human papillomavirus 16) [compound 64] | +
11 | 60 (AFRDLCIVYR; Human papillomavirus 16) [compound 60] | +
12 | 62 (NPYAVCDKCLK; Human papillomavirus 16) [compound 62] | +
13 | 63 (AVCDKCLKFY; Human papillomavirus 16) [compound 63] | +
14 | 65 (VCDKCLKFYSK; Human papillomavirus 16) [compound 65] | +
15 | 61 (IVYRDGNPY; Human papillomavirus 16) [compound 61] | +
16 | 74 (DLLIRCINCQK; Human papillomavirus 16) [compound 74] | +

Same assay, conditions: HLA restriction A24

Row | Substance | cytokine: Immunogenicity of the peptide shown by intracellular cytokine staining (IFN-gamma, TNF-alpha)
17 | 84 (PYAVCDKCLKF; Human papillomavirus 16) [compound 84] | +
18 | 88 (DRAHYNIVTF; Human papillomavirus 16) [compound 88] | +
19 | 92 (HYCYSLYGTTL; Human papillomavirus 16) [compound 92] | +
20 | 87 (PDRAHYNIVTF; Human papillomavirus 16) [compound 87] | +
21 | 89 (HYNIVTFCC; Human papillomavirus 16) [compound 89] | +

Same assay, conditions: HLA restriction B07

Row | Substance | cytokine: Immunogenicity of the peptide shown by intracellular cytokine staining (IFN-gamma, TNF-alpha)
22 | 101 (NIRGRWTGRCM; Human papillomavirus 16) [compound 101] | +
23 | 141 (RPRKLPDLCT; Human papillomavirus 16) [compound 141] | +
24 | 97 (RPRKLPQL; Human papillomavirus 16) [compound 97] | +
25 | 102 (EPDRAHYNIV; Human papillomavirus 16) [compound 102] | +

Same assay, conditions: HLA restriction B15

Row | Substance | cytokine: Immunogenicity of the peptide shown by intracellular cytokine staining (IFN-gamma, TNF-alpha)
26 | 101 (NIRGRWTGRCM; Human papillomavirus 16) [compound 101] | +
27 | 110 (GQAEPDRAHY; Human papillomavirus 16) [compound 110] | +
28 | 115 (FAFRDLCIVY; Human papillomavirus 16) [compound 115] | +
29 | 116 (LCIVYRDGNPY; Human papillomavirus 16) [compound 116] | +
30 | 109 (LQPETTDLY; Human papillomavirus 16) [compound 109] | +
31 | 117 (YRHYCYSVY; Human papillomavirus 16) [compound 117] | +
32 | 63 (AVCDKCLKFY; Human papillomavirus 16) [compound 63] | +
33 | 107 (KQQLLRREVY; Human papillomavirus 16) [compound 107] | +

Test system: short-term antigen-specific T cell lines generated from PBMCs
Test: Interferon-γ ELISpot assay on short-term antigen-specific T cell lines
Type: cell-based, human
Conditions: HLA restriction A01

Row | Substance | ELISpot: Immungenicity of the peptide shown by IFN-gamma ELISPOT analysis
34 | 7 (TTDLYCYEQ; Human papillomavirus 16) [compound 7] | +
35 | 5 (EYRYYCYSLY; Human papillomavirus 16) [compound 5] | +
36 | 6 (DLQPETTDLY; Human papillomavirus 16) [compound 6] | +
37 | 3 (TIHDIILQCVY; Human papillomavirus 16) [compound 3] | +

Same assay, conditions: HLA restriction A02

Row | Substance | ELISpot: Immungenicity of the peptide shown by IFN-gamma ELISPOT analysis
38 | 24 (DLLMGTLGIVC; Human papillomavirus 16) [compound 24] | +
39 | 43 (LLMGTLGIVC; Human papillomavirus 16) [compound 43] | +

Same assay, conditions: HLA restriction A03

Row | Substance | ELISpot: Immungenicity of the peptide shown by IFN-gamma ELISPOT analysis
40 | 63 (AVCDKCLKFY; Human papillomavirus 16) [compound 63] | +
41 | 61 (IVYRDGNPY; Human papillomavirus 16) [compound 61] | +
42 | 66 (GIVCPICSQK; Human papillomavirus 16) [compound 66] | +

Same assay, conditions: HLA restriction A11

Row | Substance | ELISpot: Immungenicity of the peptide shown by IFN-gamma ELISPOT analysis
43 | 64 (AVCDKCLKFYS; Human papillomavirus 16) [compound 64] | +
44 | 60 (AFRDLCIVYR; Human papillomavirus 16) [compound 60] | +
45 | 62 (NPYAVCDKCLK; Human papillomavirus 16) [compound 62] | +
46 | 65 (VCDKCLKFYSK; Human papillomavirus 16) [compound 65] | +
47 | 61 (IVYRDGNPY; Human papillomavirus 16) [compound 61] | +
48 | 74 (DLLIRCINCQK; Human papillomavirus 16) [compound 74] | +

Same assay, conditions: HLA restriction A24

Row | Substance | ELISpot: Immungenicity of the peptide shown by IFN-gamma ELISPOT analysis
49 | 84 (PYAVCDKCLKF; Human papillomavirus 16) [compound 84] | +
50 | 88 (DRAHYNIVTF; Human papillomavirus 16) [compound 88] | +
51 | 92 (HYCYSLYGTTL; Human papillomavirus 16) [compound 92] | +
52 | 87 (PDRAHYNIVTF; Human papillomavirus 16) [compound 87] | +
53 | 89 (HYNIVTFCC; Human papillomavirus 16) [compound 89] | +

Same assay, conditions: HLA restriction B07

Row | Substance | ELISpot: Immungenicity of the peptide shown by IFN-gamma ELISPOT analysis
54 | 101 (NIRGRWTGRCM; Human papillomavirus 16) [compound 101] | +
55 | 141 (RPRKLPDLCT; Human papillomavirus 16) [compound 141] | +
56 | 97 (RPRKLPQL; Human papillomavirus 16) [compound 97] | +
57 | 102 (EPDRAHYNIV; Human papillomavirus 16) [compound 102] | +

Same assay, conditions: HLA restriction B15

Row | Substance | ELISpot: Immungenicity of the peptide shown by IFN-gamma ELISPOT analysis
58 | 101 (NIRGRWTGRCM; Human papillomavirus 16) [compound 101] | +
59 | 110 (GQAEPDRAHY; Human papillomavirus 16) [compound 110] | +
60 | 115 (FAFRDLCIVY; Human papillomavirus 16) [compound 115] | +
61 | 116 (LCIVYRDGNPY; Human papillomavirus 16) [compound 116] | +
62 | 117 (YRHYCYSVY; Human papillomavirus 16) [compound 117] | +
63 | 63 (AVCDKCLKFY; Human papillomavirus 16) [compound 63] | +
64 | 107 (KQQLLRREVY; Human papillomavirus 16) [compound 107] | +
65 | 118 (LLRREVYDFAF; Human papillomavirus 16) [compound 118] | +

Same assay, conditions: comparison among the peptides in Table 1

Row | Substance | rates of immunoactivation in PBMC samples, CD8 T cell responses and/or numbers of HPV16 positive cell lines presenting the peptide as HLA-complexes
66 | 109 (LQPETTDLY; Human papillomavirus 16) [compound 109] | highest rates of immunoactivation in PBMC samples, to induce the strongest CD8 T cell responses, and/or shown to be presented as HLA-complexes by the highest numbers of HPV16 positive cell lines
67 | 97 (RPRKLPQL; Human papillomavirus 16) [compound 97] | highest rates of immunoactivation in PBMC samples, to induce the strongest CD8 T cell responses, and/or shown to be presented as HLA-complexes by the highest numbers of HPV16 positive cell lines
68 | 107 (KQQLLRREVY; Human papillomavirus 16) [compound 107] | highest rates of immunoactivation in PBMC samples, to induce the strongest CD8 T cell responses, and/or shown to be presented as HLA-complexes by the highest numbers of HPV16 positive cell lines
69 | 80 (VYCKQQLL; Human papillomavirus 16) [compound 80] | highest rates of immunoactivation in PBMC samples, to induce the strongest CD8 T cell responses, and/or shown to be presented as HLA-complexes by the highest numbers of HPV16 positive cell lines
